Data taken from patent US8658649B2, “Kinase inhibitor” (Sanofi, priority 2006, dated 2014).

System: Collagen-induced arthritis (CIA)
Assay: Rat collagen induced arthritis, combination dosing with Methotrexate
Format: in vivo
Description: Immunization and Challenge: Female Lewis rats were immunized on day 0 and challenged on day 7 with cII from bovine nasal mixed with Freund's incomplete adjuvant at a final collagen concentration of 1.0 mg/ml. The animals were injected at the base of the tail with 400 μg of cII. Combination Dosing Regimen: Rats were dosed with the compound of Formula I (3.0 and 10 mg/kg, p.o., bi.d.) or Methotrexate (MTX, 0.1 and 0.2 mg/kg, p.o., q.d.) as monotherapy or in combinations consisting of each dose of the compound of Formula I with each dose of MTX starting on day 6 and continuing through day 21. Joint Pathology Ankle joint swelling was measured to the nearest 0.01 mm by using electronic digital calipers. Measurements were recorded 7 times throughout the study starting on day 6 and ending on day 21. Body weights were recorded on the same days. On day 21, hind paws were removed at the hairline just above the ankle and fixed in 10% neutral buffered formalin. MicroCT analysis: Ankle joints were examined using a cone-beam μCT scanner. A scout view scan was obtained first for selection of the examination volume of the specimens, followed by positioning, measurement and computational reconstruction. In ankle joints, the ratio of bone surface to bone volume, describing the complexity of bone surface in a certain volume, was analyzed. Statistical Analysis For joint swelling/inflammation, data were analyzed using Everstat v.5 software and a 2-way repeated measure ANOVA with Dunnett's post test. MicroCT data were analyzed by Everstat using a 1-way ANOVA and Newman-Keuls multiple comparison test.

`CN(Cc1cnc2nc(N)nc(N)c2n1)c1ccc(C(=O)N[C@@H](CCC(=O)O)C(=O)O)cc1` [MTX, Methotrexate, reference compound] was tested, and the “bone erosion, MicroCT” value (MTX 0.1 mg/kg monotherapy) was “effect was not seen” and the “bone erosion, MicroCT” value (MTX 0.2 mg/kg po qd monotherapy) was “significant decrease in bone erosion”.
